From US20250108023A1, “Products for Masking Bitterness” (The Third People's Hospital of Henan Province, priority 2023, published 2025)
Where two headings read alike, the source gives them in different places.

Columns and labels:
[1] = Oral spray bitterness masking taste test by volunteers with Coptis chinensis standard bitter solution; format: in vivo, healthy volunteers; set-up: key to bitterness value after drug: bitterness value 0.5–5.5; 1 = none, 5 = unbearable; key to Reduction of bitterness: drop in bitterness value (0.5–5.5 scale) from initial; conditions: for Duration >: retention time until bitterness rises; for inhibition in vivo at 0.2 %: Homo sapiens, read-out: Reduction range; for bitterness value after drug: initial bitterness 4.0, 16 cases
Procedure: Purpose of the experiment: it is to screen out compounds that take effect within 5 seconds, last for 30-120 seconds, and it is expected, by using such kind of compounds, the taste of the drug cannot be felt during the duration (30-120 seconds) when taking the drug.
Principle of the experiment: simulate the process of taking medicine and using the taste masking agents, first spray about 0.5 ml of oral spray on the throat (3 times), and after it takes effect quickly, taste 10 ml of bitter standard solution to screen drugs that can be used in advance and can mask the bitter taste.
• 1: Volunteer screening. The research team strictly screened the recruited volunteers and finally selected healthy volunteers as subjects. They signed informed consent forms before the experiment; • 2: Standard bitterness sample preparation. The bitterness of the samples was divided into five levels, and each level was assigned a certain bitterness value range; • 3: The sensory standard was corrected by the oral taste evaluation method, that is, the sensory standard was corrected by comparing the taste evaluation of the volunteers with the established bitterness value of the reference sample group. Specific steps: when the volunteers are doing the oral tasting test, the reference solutions of various concentrations are placed in the tasting cups, and the volunteers hold one of the solutions in their mouths, time it, and rinse their mouths by using the solution so that the bitter taste perception area at the root and sides of the tongue can fully feel the bitter taste of the drug. […] Then dilute all the selected taste masking drugs, prepare the solution, take 10 ml and put it into the spray bottle, spray it into the mouth 3 times, stay for 5 seconds, drink 10 ml of standard bitterness solution, feel and record the bitterness value, keep the standard bitterness solution in the mouth until the bitterness rises, and record the retention time. • 5: Quality control. […] Since the experimental objects are biological samples and there are individual differences between different subjects, there may be individual outliers in the experimental test data. The Grubbs test method was used to exclude outliers in the data, and then the experimental data were plotted in tables and curves for data analysis.
It is necessary to process the experimental data. Specifically, the Grubbs test method was used to perform a circular test and elimination of outliers on the data, and a bilateral test was used to eliminate outliers in the oral test. Considering the characteristics of biological samples, the detection level was selected as 0.1 and the elimination level was selected as 0.05 in this experiment.
The experimental medicinal material processing method mentioned in the above technical scheme is as follows: Preparation of bitter standard solution, use 10 g of Coptis chinensis powder, add 100 ml of pure water above 90 degrees, stir, let stand for 20 minutes, take the supernatant for use, determine the standard bitterness of 4.0 degrees by oral tasting, dilute 5 times, determine the standard bitterness of 2.0 degrees, dilute 2.0 degrees again 5 times, determine the standard bitterness of 0.5 degrees. Compare with the bitterness scoring table, (level 1 means “no bitterness or almost no bitterness”, the bitterness value is 0.5˜1.5; level 2 means “slightly bitter”, the bitterness value is 1.5˜2.5; level 3 means “bitter but acceptable”, the bitterness value is 2.5˜3.5; level 4 means “very bitter, but still tolerable”, the bitterness value is 3.5˜4.5; level 5 means “unbearable bitterness”, the bitterness value is 4.5˜5.5). Adjust the judgment and cognition of bitterness.
The standard bitterness solution used in this experiment to verify the experimental effect is a 4.0 degree bitterness solution of Coptis chinensis prepared according to the above method.

[2] = Broad-spectrum taste masking test on decoctions of extremely bitter Chinese herbal medicine slices; format: in vivo, healthy volunteers; set-up: key: reduction in bitterness degrees on a 5-degree graduation scale; conditions: 0.1% taste masking agent in 40% ethanol
Procedure: According to the standard of decocting 100 ml of liquid from 10 g of dry Chinese herbal medicine slices (decoction method: use a stainless steel container, and keep for 20 minutes after boiling), from 300 commonly used Chinese herbal medicine slices, combined with the Chinese Pharmacopoeia, more than 20 Chinese herbal medicines with bitter or extremely bitter properties written in the pharmacopoeia were selected, including Bletilla striata, Cortex qin, Stephania tetrandra, Apricot kernel, Belamcanda chinensis, Angelica dahurica, Lotus seed heart, Toosendan fruit, Andrographis paniculata, Sophora flavescens, Coptis chinensis, Gentiana scabra, Forsythia suspensa, Sophora japonica, Phellodendron amurense, Scutellaria baicalensis, Platycodon grandiflorum, Notopterygium wilfordii, Saposhnikovia divaricata, Perilla frutescens, Zanthoxylum bungeana, Osmanthus fragrans, Sophora flavescens, and Chrysanthemum officinale, totally 24 kinds of Chinese herbal medicines.
Finally, through the 5-degree graduation method, 2 species with a bitterness higher than 3.5 (moderate bitterness) and 7 species with a bitterness higher than 5 degrees (highly bitter, extremely bitter, accompanied by nausea) were screened out, a total of 9 species (Angelica pubescens, Lotus Seed Heart, Toosendan, Andrographis paniculata, Sophora flavescens, Coptis chinensis, Gentiana scabra, Forsythia suspensa, Sophora japonica) are selected as bitterness representatives to participate in the bitterness masking experiment. (Note: The bitterness of Coptis chinensis slices can reach 5.2 after 20 minutes of water decoction. The reference standard solution is 90-degree water brewing Coptis chinensis powder, it is automatically cooled to obtain a solution with a bitter taste of 4.0. Because Coptis chinensis has been used as a standard bitter liquid, it is no longer used).
The experimental method is the same as the previous part.

[3] = 0.2% solution in 60% ethanol as oral spray
[4] = 0.2% solution in 60% ethanol as oral spray, relative to original bitterness 4.0
[5] = concentration 0.001% in 60% ethanol
[6] = concentration 0.005% in 60% ethanol
[7] = concentration 0.02% in 60% ethanol
[8] = concentration 0.10% in 60% ethanol
[9] = concentration 0.50% in 60% ethanol
[10] = Andrographis paniculata, original bitterness 5
[11] = Forsythia suspensa, original bitterness 3
[12] = Gentiana, original bitterness 5
[13] = Lotus seed heart, original bitterness 5
[14] = Sophora flavescens, original bitterness 5
[15] = Toulianzi, original bitterness 5

SMILES | Duration > [1, 3] [s] | inhibition in vivo at 0.2 % [1, 4] [%] | bitterness value after drug [1, 5] | bitterness value after drug [1, 6] | bitterness value after drug [1, 7] | bitterness value after drug [1, 8] | bitterness value after drug [1, 9] | Bitterness reduction value [2, 10] | Bitterness reduction value [2, 11] | Bitterness reduction value [2, 12] | Bitterness reduction value [2, 13] | Bitterness reduction value ([2]; Puhuo, original bitterness 5) | Bitterness reduction value [2, 14] | Bitterness reduction value [2, 15] | Reduction of bitterness ([1]; 0.2% solution in 60% ethanol as oral spray, original bitterness average 4.0, average of 31 cases) | Reduction range [1, 4] [%] | inhibition in vivo at 0.2 % ([1]; po) [%]
O=CC=Cc1ccccc1 [Cinnamaldehyde, 3-phenyl-2-propenal] | > 50 | 72.5 | 3.5 | 2.6 | 1.5 | 1.1 | 1.2 | 4 | 1.7 | 4.2 | 2.3 | 4.2 | 2.3 | 3.5 |  |  | 
CC(C)=CCCC(C)=CC=O [Citral, citral] | > 30 | 57.5 | 3.7 | 2.8 | 2.1 | 1.7 | 1.9 | 1.5 | 2.5 | 3.7 | 3.5 | 3.75 | 1.7 | 1.5 |  |  | 
C=CCc1ccc(OC(C)=O)c(OC)c1 [Eugenol acetate] | > 60 | 60 | 3.8 | 3.2 | 2.3 | 1.6 | 1.4 |  |  |  |  |  |  |  |  |  | 
CCCCC[C@H](O)CC(=O)CCc1ccc(O)c(OC)c1 [Gingerol, 6-gingerol] | > 20 | 55 | 4 | 2.4 | 2.1 | 1.8 | 1.8 |  |  |  |  |  |  |  |  |  | 
C=CC(C)(O)CCC=C(C)C (centres unmarked) [Linalool, linalool] | > 30 | 52.5 | 3.5 | 2.5 | 2.1 | 1.9 | 1.9 | 0.8 | 2 | 1.2 | 1.6 | 2.5 | 0.5 | 1.1 |  |  | 
CC1CCC(C(C)C)C(=O)C1 (centres unmarked) [Menthone, 5-methyl-2-isopropylcyclohexanone] | > 30 | 70 | 2.5 | 2.1 | 1.4 | 1.2 | 1.1 |  |  |  |  |  |  |  |  |  | 
CC(C)[C@@H]1CC[C@@H](C)C[C@H]1OC(=O)CCC(=O)O [Menthyl succinate] | > 10 |  | 3.2 | 2.8 | 2.6 | 2.4 | 2.1 |  |  |  |  |  |  |  | 1.6 | 40.00 | 
COc1cc(C(=O)O)ccc1O [Vanillic acid, 3-methoxy-4-hydroxybenzoic acid] | > 50 | 27.5 |  |  |  |  |  |  |  |  |  |  |  |  |  |  | 
COc1ccc(CCN(C)CCCC(C#N)(c2ccc(OC)c(OC)c2)C(C)C)cc1OC (centres unmarked) [Verapamil, 5-((3,4-dimethoxyphenylethyl)methylamino)-2-(3,4-dimethoxyphenyl)-2-isopropylvaleronitrile, reference compound] |  |  |  |  |  |  |  |  |  |  |  |  |  |  |  |  | 0
